Source: patent publication US10399966B2, “Compounds for treatment of trypanosomes and neurological pathogens and uses thereof” (The University of North Carolina at Chapel Hill, priority 2016, dated 2019)

Tested on: T. b. brucei TREU667
Test: Mouse efficacy model of chronic T. brucei infection
Type: in vivo
Settings: single intraperitoneal dose 10 mg/kg on day 21
Method: For chronic efficacy, experiments were done in compliance with the University of Washington IACUC approved protocol. According to published procedures, groups of 5 mice were infected with 1×10^4 T. b. brucei (strain TREU667) at day 0 to establish a chronic infection. Treatment began on day 21 post-infection, and mice received 50 mg/kg test compound orally b.i.d. for 10 d (total of 20 doses) in a 200 μL volume of a vehicle composed of Phosal 53 MCT (60%), PEG400 (30%) and EtOH (10%). A control group received vehicle with no compound and another control group received a single intraperitoneal dose of diminazene aceturate at 10 mg/kg in water on day 21. […] Post dosing, parasitemia was monitored via microscopic examination of tail blood slides until 180 days post-infection. Mice were removed from the experiment once parasites were detected in the blood.
In a model of the chronic phase of HAT, compound 1 was administered to five mice infected with T. b. brucei TREU667 at 50 mg/kg/po b.i.d.×10 days, beginning 21 days post-infection. […] Efficacy PK blood samples were collected from three of the five mice prior to dose 15, and at 1 h and 6 h post-dose. […] Compound 1 attained 5/5 cures as determined by the absence of detectable parasitemia in any of the treated mice through 180 days post-infection (FIG. 2). […]

N=C(N)c1ccc(/N=N/Nc2ccc(C(=N)N)cc2)cc1 [diminazene aceturate, reference compound]
parasitemia outcome (in words): temporary clearance of parasitemia, but subsequently relapsed
